Entries after “also recorded” stand apart in the source; their conditions may differ. Read-outs that look alike come from different tables or passages of the source.
Experiments:
[1] = test system: linear double-stranded HexARev DNA fragment; assay: DNA cleavage assay, HexARev fragment; format: biochemical; settings: ligand concentration 10 μM and 100 nM (FIG. 16)
Experimental: The ability of a further series of compounds 13, 42, 59, 99 and the PBD dimer Talirine to cross-link DNA was determined using an assay involving a linear double-stranded HexARev fragment (FIG. 15).
The ability of 13 and of a series of compounds to cleave double-stranded DNA was investigated using a modification of the previously established DNA footprinting assay (34). Following an overnight incubation of the ligand-DNA complexes, the mixture was mixed with strand separation buffer containing 10 mM EDTA, 10 mM NaOH, 0.1% bromophenol blue, 80% formamide and incubated at 100° C. for 3 min. The mixture was then immediately cooled on ice and run on an 8% denaturing gel. […] Using the GA marker, these additional bands were identified as cleavage products produced by 13 at certain A sites of the DNA fragment.
The preparation of the TyrT DNA fragment (FIG. 8) and HexARev DNA fragment (FIG. 15) have been previously described (34). Briefly, the sequence which had been cloned into the BamHI site of pUC18 was obtained by cutting with HindIII and EcoRI. Radiolabelled DNA fragments were prepared by filling in the 3′-end of the HindIII site with [α-^32P]dATP using Klenow DNA polymerase (exo-).
The radiolabelled DNA fragment was separated from the remainder of the plasmid DNA on a 6% non-denaturing polyacrylamide gel. The gel (20 cm long, 0.3 mm thick) was run at 400 V in 1×TBE running buffer for about 1-2 h, until the bromophenol blue had run most of the way down the gel. The glass plates were separated and the position of the labelled DNA fragment was established by short (1 min) exposure to an X-ray film. The relevant band was then cut from the gel and the radiolabelled DNA eluted by adding 300 μL 10 mM Tris-HCl, pH 7.5 containing 0.1 mM EDTA and gently agitating overnight at room temperature. The eluted DNA was finally precipitated with ethanol and re-suspended in a suitable volume of 10 mM Tris-HCl, pH 7.5 containing 0.1 mM EDTA buffer so as to give at least 10 counts per second/μL on a hand-held Geiger counter. With fresh plasmid and α-^32P-dATP this process typically generated about 150 μL of radiolabelled fragment DNA. The absolute concentration of the DNA is not important, and it is typically lower than 10 nM.
Compounds such as 13 were synthesised as described above and the PBD dimer Talirine was obtained from Aurum Pharmatech LLC. Stock solution was prepared by dissolving the ligands in DMSO to give a concentration of 10 mM. From this stock solution, working solutions of the desired concentration were prepared by diluting with 10 mM Tris-HCl, pH 7.5 containing 10 mM NaCl.
Radiolabelled DNA (1.5 μL) was mixed with 1.5 μL ligand solution of various concentrations (10 μM-10 nM) and incubated overnight at 37° C.
Labelled DNA (1.5 μL) was mixed with 20 μL sterile water and 5 μL of denaturing loading solution (80% formamide containing 10 mM EDTA, 10 mM NaOH, 0.01% bromophenol blue). The sample was then incubated at 100° C. for 20 min with the micro-centrifuge tube cap open to allow evaporation.
Loading solution (4.5 μL) was added to samples from Section 2.1. The digestion products were boiled for 3 min at 100° C. and quickly cooled on ice prior to electrophoresis. Separation was performed on an 8% denaturing polyacrylamide gel (40 cm long, 0.3 mm thick) at 1500V for about 2 h until the dye reached the bottom of the gel. […]

SW48 cell line (gastric) = assay: MTT cytotoxicity assay, SW48; format: cell-based; settings: Homo sapiens, read-out: Cytotoxicity SW48 (72 hrs)
Experimental: (§1) Tumor cell lines were maintained in RPMI1640 medium supplemented with 10% heat-inactivated fetal bovine serum, 2 mM L-glutamine and 1 mM sodium pyruvate. 1800 cells per well were seeded in a volume of 180 μl in a 96-well flat bottom polystyrene plate. The cells were allowed to adhere overnight at 37° C. in a CO2 incubator. Ligands were initially formulated in DMSO, and stocks stored at −80° C. They were then further formulated at lox concentration in RPMI1640 medium. 20 ul of diluted samples were added into each treatment well. On each plate, blank wells with no cells, and untreated wells containing cells, were included. Plates were then cultured at 37° C. in a CO2 incubator for 72 hrs. Cytotoxicity was evaluated using a tetrazolium salt-based assay, the MTT assay. After 72 hours, the supernatant was removed from each well and 200 μl of a sterile filtered 500 μg/ml MTT solution in water added to each well. The plates were then incubated at 37° C. in a CO2 incubator for 4 hrs. The supernatant was then removed and the formazan crystals formed solubilized by adding 150 μl of DMSO to each well. The plate was then read on a plate reader at 540 nm, and percentage cell survival calculated as follows: ((mean absorbance treated wells at concentration x−mean absorbance blank wells)[…](mean absorbance untreated wells at concentration x−mean absorbance blank wells))×100. Data were plotted as concentration in nM vs. % cell survival in Microsoft Excel, and IC50 values (concentration where cell survival is reduced by a half) were determined from the graph.

[2] = test system: LIM1215 cell line (gastric); assay: MTT cytotoxicity assay, LIM1215; format: cell-based; settings: read-out: Cytotoxicity LIM1215 (72 hours)
Experimental: as §1

[3] = test system: SW620 cell line (gastric); assay: MTT cytotoxicity assay, SW620; format: cell-based; settings: Homo sapiens, read-out: Cytotoxicity SW620 (72 hours)
Experimental: as §1

[4] = test system: FaDu (head and neck cancer) cell line; assay: MTT cytotoxicity assay, FaDu; format: cell-based; settings: Homo sapiens, 72 h
Experimental: as §1

PC3 (prostate) cell line = assay: MTT cytotoxicity assay, PC3; format: cell-based; settings: 72 h, read-out: Cytotoxicity PC3 (nM, 72 hour)
Experimental: as §1

[5] = test system: three fluorescently labelled DNA sequences shown in FIG. 17; assay: FRET DNA melting, the three DNA sequences shown in FIG. 17 together; format: binding; settings: different concentrations, all three sequences, vs control DNA
Source text: Further FRET DNA melting studies were undertaken on a number of molecules using three fluorescently labelled sequences. The sequences (FIG. 17) were designed to provide additional evidence that the series can form inter- and intrastrand cross-links. Inosines were inserted in place of traditional DNA bases in some cases to limit the number of binding sites available for the compounds to interact with. The short duplexes used in this FRET study are relatively unstable in the duplex form with a melting temperature below 30° C. so that, in the absence of ligand, a large part of the melting occurs below the starting temperature of the experiment. […] Increasing concentrations of 13 cause a greater amount of the melting transition to appear at the higher temperature (i.e. a greater number of the DNA molecules are cross-linked). A greater effect for 5′-AIIAGAITTTI′-3′ can be observed at lower concentrations of 13.
Oligonucleotides were obtained from ATDbio (Southampton, UK) in lyophilised form. They were labelled with a fluorophore molecule (F=fluorescein) at the 5′-end and a quencher molecule (Q=dabcyl) at the 3′-end of the complementary strand. Each oligonucleotide was dissolved in distilled H2O to form stock solutions of 100 PM. Working solutions of 5 μM were prepared by diluting the stock solution with distilled H2O.
The following buffers were used: 250 mM phosphate buffer pH 7.4 (consisting of sodium dihydrogen phosphate and sodium phosphate diluted in distilled H2O) and 5 M sodium chloride buffer. A11 buffers and distilled H2O were filtered through a […] filter prior to use.
For the FRET experiments a stock solutions were prepared by dissolving compound (such as compound 13) in DMSO to give a concentration of 10 mM. From this stock solution, working solutions of the desired concentration were prepared by diluting the stock solution with distilled H2O.
The reaction mixture was comprised of 4 μL of 250 mM phosphate buffer (final concentration of 50 mM), 4 μL flourophor and 4 μL quencher molecule of the appropriate oligonucleotide for a final concentration of 0.2 PM, 4 μL 5 M sodium chloride (final concentration of 1 M NaCl), and 4 μL of distilled H2O. This mixture was heated in an Eppendorf tube at 90° C. for 1 min and slowly cooled down to room temperature. This process was carried out to anneal the single strands to double-stranded DNA. Following this, 4 μL of the ligand was added in the desired concentration and the mixture incubated overnight either at room temperature or 4° C. A control sample of DNA only was prepared by mixing 4 μL 250 mM phosphate buffer (final concentration of 50 mM) with 4 μL fluorophore-labelled and 4 μL quencher-labelled oligonucleotides (of the appropriate sequence) to give a final concentration of 0.2 PM, 4 μL 5 M sodium chloride (final concentration of 1 M NaCl) and 4 μL distilled H2O. This mixture was analysed without prior annealing.
Fluorescence melting profiles were measured using a Roche LightCycler using a total reaction volume of 20 μL. Initially, the samples were denatured by heating to 95° C. at a rate of 1° C. min^−1. The samples were then maintained at 95° C. for 5 min before annealing by cooling to 25° C. at 1° C. min^−1. The samples were then held at 25° C. for a further 5 min and finally melted by heating to 95° C. at 1° C. min^−1. Annealing steps and melting steps were all recorded and changes in fluorescence were measured at 520 nm.
Tm values were obtained from the first derivates of the melting profiles using the Roche LightCycler software.

SW48 cell line = assay: MTT cytotoxicity assay, SW48; format: cell-based; settings: MTT assay, 72 hour incubation
Experimental: as §1

SW620 cell line = assay: MTT cytotoxicity assay, SW620; format: cell-based; settings: MTT assay, 72 hour incubation
Experimental: as §1

[6] = read-out: Cytotoxicity FaDu (nM, 72 hour)

| Compound | cleavage of HexARev DNA fragment [1] | IC50 (PC3 (prostate) cell line) | IC50 [4, 6] | IC50 ([2]; LIM1215, 72 h) | also measured |
| --- | --- | --- | --- | --- | --- |
| O=C(O)c1cc(OCc2ccccc2)c2ccccc2c1 [Compound 77, 4-(Benzyloxy)-2-naphthoic acid] | distinct cleavage patterns | – | – | – | – |
| COc1cc2c(cc1OCCCCCC(=O)N1C[C@@H](CCl)c3c1cc(O)c1ccccc31)N=C[C@@H]1CCCCN1C2=O [Compound 99, (S)-3-((6-((S)-1-(Chloromethyl)-5-hydroxy-1,2-dihydro-3H-benzo[e]indol-3-Y1)-6-oxohexyl)oxyl)-2-methoxy-7,8,9,10-tetrahydrobenzo-[e]pyrido[1,2-a][1,4]diazepin-12(6aH)-one] | cleave DNA | – | – | – | IC50 (SW48 cell line (gastric); SW48, MTT assay, 72 hour incubation): 0.035 nM; IC50 ([2]; LIM1215, MTT assay, 72 hour incubation): 0.039 nM; IC50 ([3]; SW-620, MTT assay, 72 hour incubation): 0.045 nM |
| COc1cc2c(cc1OCc1cccc(CC(=O)N3C[C@@H](CCl)c4c3cc(OC(=O)N3CCN(C)CC3)c3ccccc43)c1)N=C[C@@H]1CCCCN1C2=O [Compound 59, (S)-1-(Chloromethyl)-3-(2-(3-((((S)-2-methoxy-12-oxo-6a,7,8,9,10,12-hexahydrobenzo[e]pyrido[1,2-a][1,4]diazepin-3-yl)oxy)-methyl)phenyl)acetyl)-2,3-dihydro-1H-benzo[e]indol-5-yl 4-methyl-piperazine-1-carboxylate] | limited cleavage | 900 nM | – | – | IC50 ([4]; read-out: IC50 value in FaDu (prodrug form)): 4500 nM; effect on melting temperature / DNA stabilisation [5]: does not impact on the stabilisation temperature of the parent DNA; also recorded: does not increase in proportion to the concentration |
| COc1cc2c(cc1OCCCCCC(=O)N1C[C@@H](CCl)c3c1cc(OC(=O)N1CCN(C)CC1)c1ccccc31)N=C[C@@H]1CCCCN1C2=O [Compound 57, (S)-1-(Chloromethyl)-3-(6-(((S)-2-methoxy-12-oxo-6a,7,8,9,10,12-hexahydrobenzo[e]pyrido[1,2-a][1,4]diazepin-3-yl)oxy)hexanoyl)-2,3-dihydro-1H-benzo[e]indol-5-yl 4-methylpiperazine-1-carboxylate] | – | 3 nM | > 10 nM | 0.41 nM | IC50 (SW48 cell line (gastric); SW48, 72 h): 0.042 nM; IC50 ([3]; SW-620, 72 h): 1.1 nM |
| COc1cc2c(cc1OCCCC(=O)N1C[C@@H](CCl)c3c1cc(OC(=O)N1CCN(C)CC1)c1ccccc31)N=C[C@@H]1CCCCN1C2=O [Compound 55, (S)-1-(Chloromethyl)-3-(4-(((S)-2-methoxy-12-oxo-6a,7,8,9,10, 12-hexahydrobenzo[e]pyrido[1,2-a][1,4]diazepin-3-yl)oxy)butanoyl)-2,3-dihydro-1H-benzo[e]indol-5-yl 4-methylpiperazine-1-carboxylate] | – | 0.02 nM | 1.5 nM | – | – |
| COc1cc2c(cc1OCc1cccc(CC(=O)N3C[C@@H](CCl)c4c3cc(OC(=O)N3CCN(C)CC3)c3ccccc43)c1)NC(=O)[C@@H]1CCCCN1C2=O [Compound 140] | – | – | – | 18.1 nM | Cytotoxicity SW48 (72 hrs) (SW48 cell line): Not active; Cytotoxicity SW620 (72 hours) (SW620 cell line): Not active |

Source: patent publication US20240002379A1, “ASYMMETRIC CONJUGATE COMPOUNDS” (Pheon Therapeutics Ltd., priority 2016, published 2024)
